Data on three compounds can be found in patent publication US20090202519A1, “Compositions and methods for treating gram positive bacterial infection in a mammalian subject” (The Scripps Research Institute, priority 2005, published 2009).

For test [1], the system named is Scd1 expression in peritoneal macrophages. The test can be described thus: Scd1 expression by RT-PCR in stimulated peritoneal macrophages. The test is classed as cell-based. To be noted: wild-type mouse peritoneal macrophages, within 18 hours after stimulation. From the text: A. SignalScan analysis of the Scd1 promoter. NF-κB and ISRE (interferon-stimulated regulatory element) are shown. B. RT-PCR detection of Scd1 and β-actin transcripts in skin biopsies of non-infected controls (C57BL/6, lane 1) and Tlr2−/− (lane 4) animals or after infection by S. aureus (lanes 2 and 5) or E. coli (lane 3). PCR products after 30 and 40 cycles are shown. M, size standard. C. RT-PCR detection of Scd1 and β-actin transcripts in controls (0) and MALP-induced peritoneal macrophages isolated from wild-type mice after 2, 4, 8 and 18 h. D. Quantification of the Scd1/β-actin ratio.
Macrophages, which represent an ideal system in which to study TLR signaling, also express the Scd1 gene, as reported recently. Uryu et al., Biochem Biophys Res Commun 303:302-5, 2003. To determine whether isolated macrophages are capable of upregulating Scd1 and to determine the kinetics of the response, peritoneal macrophages isolated from wild-type mice were stimulated with, synthetic macrophage-activating lipopeptide (MALP-2, EMC microcollections GmbH, Germany), a known TLR2 agonist. Takeuchi et al., J Immunol 164:554-7, 2000. […]
Semi-quantitative RT-PCR. […] Hoebe et al., J Endotoxin Res 9:250-5, 2003. hSCD1 and hFADS2 expression SZ95 sebocytes was measured by semi-quantitative RT-PCR using the following oligonucleotides: […]

For test [2], the system named is SZ95 sebocytes. Nature of the test: SZ95 human sebocytes: IL-6/IL-8 ELISA and SCD1/FADS2 RT-PCR. To be noted: SZ95 cells. In kind it is cell-based. From the text: To corroborate potential relevance of inducible Scd1 expression in human skin defense against Gram-positive pathogens, the effect of MALP-2 was investigated on the immortalized human sebocyte cell line SZ95. Zouboulis et al., J. Invest Dermatol. 113:1011-1020, 1999. […] These observations were extended by monitoring the expression of the fatty acid desaturase2 (FADS2) gene. FADS2 encodes a protein with enzymatic properties similar to those of SCD1 and was recently shown to be deficient in a patient affected by a severe skin condition manifested by cheilosis, a hyperkeratotic rash over the arms and legs and perineal dermatitis. Williard et al., J. Lipid Res. 42:501-508, 2001.
A. IL-6 production is induced in SZ95 cells after MALP-2 treatment (50 ng/ml). […] B. Quantification of IL-8 in the same conditions as in A. C. RT-PCR detection of SCD1 and FADS2 expression 4 and 18 hours after LPS and MALP-2 stimulation. GAPDH expression was used as control. D. Quantification of the SCD1 and FADS2 signals measured in two independent experiments (+/− s.e.m) after normalization with the GAPDH signal.
Cell culture. SZ95 sebocytes were maintained in HSG-Med (Sebomed, Berlin, Germany) supplemented with 10% heat inactivated FCS, 5 ng/ml human epidermal growth factor, 1 mM CaCl2, 10^−5 M palmitic acid, 50 μg/ml gentamicin for 2, 4, 8 and 18 hours with/without 50 ng/ml MALP-2 or 100 ng/ml LPS and the supernatants were collected for IL6 and IL8 evaluation by ELISA. RNA was isolated from the 4- and 18-hour samples by the RNeasy Midi kit (Qiagen, Hilden, Germany) and purified by the RNase-Free DNase set (Qiagen) for RT-PCR.
Semi-quantitative RT-PCR. Wild-type and Tlr2^−/− mutant mice were depilated and infected by subcutaneous injection of S. aureus or E. coli (5×10^5 […]). After 24 h, the skin of the infected area was dissected and total RNA was extracted by the Trizol (Gibco) method. […] Hoebe et al., J Endotoxin Res 9:250-5, 2003. hSCD1 and hFADS2 expression SZ95 sebocytes was measured by semi-quantitative RT-PCR using the following oligonucleotides: […]
(In an ELISA, binding on a coated surface is turned into a signal by an enzyme label.)

In test [3] the test system is S. aureus. The test can be described thus: S. aureus skin infection in flake (flk/flk) mutant mice. The test is classed as in vivo, mouse. The following applies: flake mutants; 100 μl of 100 μM every two days. The procedure: However, complete rescue of the phenotype was not achieved by this pharmacological approach.
A. Palmitoleate injection accelerates bacterial clearance in wild-type mice. Luminescence (expressed as a percentage of the initial inoculum) was measured in control (C57BL/6) mice inoculated with S. aureus (at day 0) and treated by vehicle (DMSO) or palmitoleate injections every two days (arrows). B. Picture of control (C57BL/6) mice 9 days after S. aureus infection treated by DMSO (top) or palmitoleate (bottom) injections. C. Histogram showing the size of the lesion measured at day 9 after the infection in control (B6) mice treated with DMSO or palmitoleate. ** indicates P value <0.01. D. Palmitoleate treatment in S. aureus-infected flake mice. The protocol is similar as in A, except that 100 μl injections of a 75 mM solution of palmitoleate were performed. E. Pictures of infected flake mice at day 12 after DMSO (top) or palmitoleate (bottom) treatment. F. Size of the lesion (determined at day 12) in infected flk mutants treated with DMSO or palmitoleate. * indicates P value <0.05.
Skin infection. […] Luminescence was monitored daily with a CCD camera (5 min exposure of the animals) and quantification was done with the IVIS program from Xenogen.

For test [4], the system named is S. pyogenes. Nature of the test: microbe, parasite or virus in culture. The following applies: for bacteriostatic and bactericidal activity: S. pyogenes, in vitro; for MBC / MIC: Streptococcus pyogenes; for MBC: read-out: MBC (Minimum Bactericidal Concentration); for MIC: read-out: MIC (Minimum Inhibitory Concentration). As for the experimental part:
(§1) Miller et al., Arch Dermatol 124:209-15, 1988; Wille and Kydonieus, Skin Pharmacol Appl Skin Physiol 16:176-87, 2003. To test the working hypothesis, a series of in vitro experiments were first performed in which the effect of each lipid was measured on the growth of S. pyogenes, S. aureus and E. coli.
(§2) Bacteria. S. aureus Xen8.1 (parental strain 8325-4), S. pyogenes Xen20 (derived from serotype M49, strain 591) and E. coli Xen14 (derived from EPEC WS2572) were obtained from Xenogen (Carnbury, N.J.)

Test [5] concerns S. aureus. The test can be described thus: S. aureus skin infection in wild-type (C57BL/6) mice, luminescence and wound size. The test is classed as in vivo, mouse. As for the experimental part:
To investigate the physiological relevance of this antimicrobial activity, wild-type mice were inoculated with S. aureus and treated the infected animals by repeated (every two days) subcutaneous injections of palmitoleate (100 μl of a 100 μM solution in DMSO), or DMSO alone at the site of infection. The results of this experiment are illustrated in FIGS. 6A and B. For both groups of mice (n=6 animals), luminescence is expressed as a percentage of the initial inoculum, determined 24 hours after infection. […] As a consequence of improved S. aureus elimination, the diameter of the ulcerative wound (measured at day 9) in lipid-treated animals is one fourth that observed in controls (FIG. 6C).
A. Palmitoleate injection accelerates bacterial clearance in wild-type mice. Luminescence (expressed as a percentage of the initial inoculum) was measured in control (C57BL/6) mice inoculated with S. aureus (at day 0) and treated by vehicle (DMSO) or palmitoleate injections every two days (arrows). […] Histogram showing the size of the lesion measured at day 9 after the infection in control (B6) mice treated with DMSO or palmitoleate. ** indicates P value <0.01. […] F. Size of the lesion (determined at day 12) in infected flk mutants treated with DMSO or palmitoleate. * indicates P value <0.05. […]

For test [6], the system named is S. aureus. Nature of the test: Minimum inhibitory and bactericidal concentration on S. aureus in vitro. The test is classed as cell-based, Staphylococcus aureus. To be noted: for bacteriostatic and bactericidal activity: in vitro. The procedure: as §1, §2
The mark [7] stands for this setting: Staphylococcus aureus, average of 3 experiments.

Values after ≈ are worked out from the molar mass of the structure shown. Some results are limits rather than exact numbers.

For MALP-2, the “increase of Scd1 expression” value in test [1] stood at 4 fold. Also, the “SCD1 transcription” value in test [2] (4 hours after stimulation) was “up-regulated”. For the same compound, the “FADS2 expression” value in test [2] (18 hours after stimulation) is “slightly but specifically induced”. The “IL-6 and IL-8 production” value in test [2] (MALP-2 50 ng/ml, LPS 100 ng/ml) was “increased IL-6 and IL-8 production”.
`CCCCCC/C=C\CCCCCCCC(=O)O` [Palmitoleate, palmitoleic acid]: the “bacterial growth” value in test [3] is “marked reduction of bacterial growth between days 1 and 4”. In test [4], the “bacteriostatic and bactericidal activity” value was “strong bacteriostatic and bactericidal activity”; the MBC was found to be 10 µM (≈ 2.54 µg/mL); the MIC is 10 µM (≈ 2.54 µg/mL). For the same compound, in test [5] (9 days after S. aureus inoculation, s.c. 100 μl of 100 μM in DMSO every two days), the “reduction of luminescence compared to vehicle-treated mice” value came to 90%. In addition, the “diameter of the ulcerative wound relative to controls” value in test [5] (measured at day 9, s.c. 100 μl of 100 μM every two days) is given as “one fourth”. In test [6] (setting [7]), this compound came in with an MBC of 50 µM (≈ 12.7 µg/mL) and an MIC of 36.6 µM (≈ 9.31 µg/mL). The “bacteriostatic and bactericidal activity” value in test [6] is “strong bacteriostatic and bactericidal activity”.
Regarding `CCCCCCCC/C=C\CCCCCCCC(=O)O` [Oleate, oleic acid], in test [4], the “bacteriostatic and bactericidal activity” value is “strong bacteriostatic and bactericidal activity”; the MBC stood at 13.3 µM (≈ 3.76 µg/mL); the MIC turned out to be 8.3 µM (≈ 2.34 µg/mL). In test [6] (setting [7]), this compound displayed an MIC of more than 75 µM. In addition, in test [6], the “bacteriostatic and bactericidal activity” value was “strong bacteriostatic and bactericidal activity”.
